Reference: ChEMBL document CHEMBL4184324, “Ligand Desolvation Steers On-Rate and Impacts Drug Residence Time of Heat Shock Protein 90 (Hsp90) Inhibitors” (J Med Chem, 2018)

The molecules below were run against Heat shock protein HSP90 (Homo sapiens, UniProt P07900+P08238) (assay: Binding affinity to recombinant N-terminal Hsp90 (unknown origin) by SPR method).
Assay type: protein assay
With `CC(=O)c1ccc(N(C)C(=O)c2cc3c(Cc4cccc(C)c4)n[nH]c3cc2O)cc1` the Kd was 25.4 nM. `Cc1cccc(Cc2n[nH]c3cc(O)c(C(=O)N(C)c4cccc(Cl)c4)cc23)c1` was tested, and the Kd was 89 nM. For `Cc1cccc(Cc2n[nH]c3cc(O)c(C(=O)N(C)c4ccc(F)cc4)cc23)c1`, the Kd was 73 nM. `CC(=O)N1CCc2ccc(N(C)C(=O)c3cc4c(Cc5cccc(C)c5)n[nH]c4cc3O)cc21` gave a Kd of 51.8 nM. `CN(C(=O)c1cc2c(CC3CCCC3)n[nH]c2cc1O)c1ccc(N2CCOCC2)cc1` showed a Kd of 7.8 nM. Work on `COc1ccc(N(C)C(=O)c2cc3c(Cc4cccc(C)c4)n[nH]c3cc2O)cc1Cl` yielded a Kd of 17.2 nM. `COc1ccc(N(C)C(=O)c2cc3c(Cc4cccc(C)c4)n[nH]c3cc2O)cc1` gave a Kd of 24 nM. In the case of `Cc1cccc(Cc2n[nH]c3cc(O)c(C(=O)N(C)c4cccc(C)c4)cc23)c1`, the Kd is reported as 70 nM. `CC(=O)N1CCc2cc(N(C)C(=O)c3cc4c(Cc5cccc(C)c5)n[nH]c4cc3O)ccc21` showed a Kd of 50.9 nM. `CN(C(=O)c1cc2c(CC3CCCCC3)n[nH]c2cc1O)c1ccc(N2CCOCC2)cc1` was tested, and the Kd was 42 nM. For `Cc1cccc(Cc2n[nH]c3cc(O)c(C(=O)N(C)c4ccc(CN5CCOCC5)cc4)cc23)c1`, the Kd was 33.4 nM. `Cc1cccc(Cc2n[nH]c3cc(O)c(C(=O)N(C)c4ccc(OCCCC#N)cc4)cc23)c1` was tested, and the Kd was 32.5 nM. Molecule `Cc1ccccc1-n1c(-c2cc(C(=O)N(C)Cc3cccc(-c4cccnc4)c3)c(O)cc2O)n[nH]c1=O` has a Kd of 34.6 nM. `CCCCc1n[nH]c2cc(O)c(C(=O)N(C)c3ccc(N4CCOCC4)cc3)cc12` showed a Kd of 6.6 nM. In the case of `COc1cccc(N(C)C(=O)c2cc3c(Cc4cccc(C)c4)n[nH]c3cc2O)c1`, the Kd is reported as 43 nM. Molecule `Cc1cccc(Cc2n[nH]c3cc(O)c(C(=O)N(C)c4ccc(CNS(C)(=O)=O)cc4)cc23)c1` has a Kd of 16 nM. `CN(C(=O)c1cc2c(C(=O)N3CCCCC3)n[nH]c2cc1O)c1ccc(N2CCOCC2)cc1` showed a Kd of 42 nM. `CCCc1n[nH]c2cc(O)c(C(=O)N(C)c3ccc(N4CCOCC4)cc3)cc12` gave a Kd of 5.4 nM. With `Cc1cccc(Cc2n[nH]c3cc(O)c(C(=O)N(C)c4ccc(Br)cc4)cc23)c1` the Kd was 155.3 nM. For `Cc1cccc(Cc2n[nH]c3cc(O)c(C(=O)N(C)c4ccc(COCCN(C)C)cc4)cc23)c1`, the Kd was 11.5 nM. `Cc1cccc(Cc2n[nH]c3cc(O)c(C(=O)N(C)c4cccc(F)c4)cc23)c1` was tested, and the Kd was 61.2 nM. Work on `Cc1cccc(Cc2n[nH]c3cc(O)c(C(=O)N(C)c4ccc5c(c4)OCCO5)cc23)c1` yielded a Kd of 38.6 nM. Work on `COc1cccc(Cc2n[nH]c3cc(O)c(C(=O)N(C)c4ccc(N5CCOCC5)cc4)cc23)c1` yielded a Kd of 12 nM. For `Cc1cccc(Cc2n[nH]c3cc(O)c(C(=O)N(C)c4ccc(Cl)cc4)cc23)c1`, the Kd was 152.9 nM.
